Experimental data: BigSolDB 2.1

O=C(O)c1ccc(-c2ccc(C(=O)O)o2)o1
solubility (mole fraction)
Settings | in DMAc | in DMSO | in acetic acid | in acetonitrile | in isopropanol | in methanol | in n-pentanol | in water
298.15 K | 0.0166 | 0.00768 | 8.11e-06 | 1.73e-06 | 0.0001 | 0.000331 | 0.000146 | 9.64e-07
303.15 K | 0.0208 | 0.00984 | 1.13e-05 | 2.2e-06 | 0.000106 | 0.000393 | 0.000154 | 1.31e-06
313.15 K | 0.0283 | 0.017 | 2.35e-05 | 3.47e-06 | 0.000154 | 0.000464 | – | 1.97e-06
323.15 K | 0.0499 | 0.0282 | 3.38e-05 | 5.31e-06 | 0.000223 | 0.000574 | 0.000148 | 2.55e-06
333.15 K | 0.0555 | 0.0412 | 6.79e-05 | 7.91e-06 | 0.000284 | 0.000702 | 0.000214 | 3.75e-06
343.15 K | 0.0807 | 0.0728 | 0.000112 | 1.15e-05 | 0.000592 | 0.00109 | 0.000412 | 4.84e-06
353.15 K | – | – | 0.000214 | 1.58e-05 | 0.00116 | – | 0.000757 | 7.43e-06
363.15 K | – | – | – | 2.12e-05 | 0.0014 | – | 0.00144 | 9.09e-06
